In the supplement of paper PMC4862054:

What was measured:
Conditions in all cases: incubation time: 72 h
[1] = tested on: BT-549; assay: drug sensitivity score (DSS), CellTox Green (DSS (AUC-based score)); higher = stronger drug effect (viability inhibition or cytotoxicity); extreme values may be limits of the assay
Outline: (§1)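 For 72 h, breast cancer cell lines seeded at 20 µl suspension per well in 384-well plates were incubated with compound at 5 concentrations in 10-fold steps spanning a 10,000-fold range that differed by compound. The first reading was CellTox Green fluorescence at 485/520 nm, and the second was CellTiter-Glo luminescence after 10 min at room temperature. Both were normalised per plate to 0.1 % DMSO and a positive kill control, and the drug sensitivity score was obtained from the area under the fitted dose-response curve.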

[2] = tested on: MDA-MB-436; assay: as above
Outline: as §1

[3] = tested on: HCC1937; assay: as above
Outline: as §1

[4] = tested on: MDA-MB-453; assay: as above
Outline: as §1

[5] = tested on: MFM-223; assay: as above
Outline: as §1

[6] = tested on: CAL-85-1; assay: as above
Outline: as §1

[7] = tested on: BT-474; assay: as above
Outline: as §1

[8] = tested on: CAL-51; assay: as above
Outline: as §1

[9] = tested on: HCC1599; assay: as above
Outline: as §1

[10] = tested on: HCC1143; assay: as above
Outline: as §1

[11] = tested on: CAL-120; assay: as above
Outline: as §1

[12] = tested on: MCF-10A; assay: as above
Outline: as §1

[13] = tested on: DU-4475; assay: as above
Outline: as §1

[14] = tested on: MDA-MB-231; assay: as above
Outline: as §1

[15] = tested on: BT-549; assay: normalised viability (% of control), CellTiter-Blue; higher = more viable cells (about 100 = DMSO control)
Outline: (§2)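 Each value is normalised viability at a single listed concentration of the series. Breast cancer cell lines in 384-well plates were incubated 72 h with compound and read by CellTiter-Blue fluorescence at 560/590 nm, with vehicle set to 100 and a positive kill control to 0 on every plate.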

[16] = tested on: MDA-MB-468; assay: as above
Outline: as §2

[17] = tested on: MDA-MB-436; assay: as above
Outline: as §2

[18] = tested on: HCC1937; assay: as above
Outline: as §2

[19] = tested on: MDA-MB-453; assay: as above
Outline: as §2

[20] = tested on: HDQ-P1; assay: as above
Outline: as §2

[21] = tested on: CAL-85-1; assay: as above
Outline: as §2

[22] = tested on: BT-474; assay: as above
Outline: as §2

[23] = tested on: HCC1143; assay: as above
Outline: as §2

[24] = tested on: CAL-148; assay: as above
Outline: as §2

[25] = tested on: CAL-120; assay: as above
Outline: as §2

COc1cc2c(cc1-c1c(C)noc1C)ncc1[nH]c(=O)n([C@H](C)c3ccccn3)c12 [I-BET151]
drug sensitivity score [1]: 0 | drug sensitivity score [2]: 1.57 | drug sensitivity score [3]: 0 | drug sensitivity score [4]: 0 | drug sensitivity score [5]: 0 | drug sensitivity score [6]: 5.11 | drug sensitivity score [7]: 0 | drug sensitivity score [8]: 4.63 | drug sensitivity score [9]: 0 | drug sensitivity score [10]: 0 | drug sensitivity score [11]: 0 | drug sensitivity score [12]: 2.02 | drug sensitivity score [13]: 0.559 | drug sensitivity score [14]: 1.07

CC[C@H](CC#N)OC(=O)N[C@@H](C)c1cccc(NC(=O)Nc2ccc(-c3cnco3)c(OC)c2)c1 [AVN944]
drug sensitivity score [1]: 0 | drug sensitivity score [2]: 0 | drug sensitivity score [3]: 0 | drug sensitivity score [4]: 0 | drug sensitivity score [5]: 0 | drug sensitivity score [6]: 0 | drug sensitivity score [7]: 0 | drug sensitivity score [8]: 5.68 | drug sensitivity score [9]: 0 | drug sensitivity score [10]: 0 | drug sensitivity score [11]: 0 | drug sensitivity score [12]: 0 | drug sensitivity score [13]: 0 | drug sensitivity score [14]: 0

CCCc1cc(C)[nH]c(=O)c1CNC(=O)c1cc(-c2ccnc(N3CCN(C)CC3)c2)cc2c1cnn2C(C)C [GSK343]
drug sensitivity score [1]: 0 | drug sensitivity score [2]: 0 | drug sensitivity score [3]: 0 | drug sensitivity score [4]: 6.47 | drug sensitivity score [5]: 7.62 | drug sensitivity score [6]: 2.18 | drug sensitivity score [7]: 5.28 | drug sensitivity score [8]: 0 | drug sensitivity score [9]: 1.18 | drug sensitivity score [10]: 0 | drug sensitivity score [11]: 0 | drug sensitivity score [12]: 0 | drug sensitivity score [13]: 0 | drug sensitivity score [14]: 7.22

CC(C)n1nc(-c2ccc3oc(N)nc3c2)c2c(N)ncnc21 [INK128]
drug sensitivity score [1]: 0 | drug sensitivity score [2]: 0 | drug sensitivity score [3]: 0 | drug sensitivity score [4]: 0 | drug sensitivity score [5]: 3.35 | drug sensitivity score [6]: 0 | drug sensitivity score [7]: 0 | drug sensitivity score [8]: 1.08 | drug sensitivity score [9]: 0 | drug sensitivity score [10]: 0 | drug sensitivity score [11]: 0 | drug sensitivity score [12]: 0 | drug sensitivity score [13]: 0 | drug sensitivity score [14]: 0

CC(C)NC[C@@H](C(=O)N1CCN(c2ncnc3c2[C@H](C)C[C@H]3O)CC1)c1ccc(Cl)cc1 [GDC-0068]
drug sensitivity score [1]: 0 | drug sensitivity score [2]: 0 | drug sensitivity score [3]: 0 | drug sensitivity score [4]: 0 | drug sensitivity score [5]: 1.29 | drug sensitivity score [6]: 0 | drug sensitivity score [7]: 0.545 | drug sensitivity score [8]: 2.24 | drug sensitivity score [9]: 0 | drug sensitivity score [10]: 0 | drug sensitivity score [11]: 0 | drug sensitivity score [12]: 0 | drug sensitivity score [13]: 0 | drug sensitivity score [14]: 0

O=NN(CCCl)C(=O)NC1CCCCC1 [Lomustine]
normalised viability ([15]; 10 nM): 84.4% | normalised viability ([15]; 1000 nM): 86.6% | normalised viability ([15]; 10000 nM): 84.6% | normalised viability ([16]; 10 nM): 100% | normalised viability ([16]; 1000 nM): 98.1% | normalised viability ([16]; 10000 nM): 95.6% | normalised viability ([17]; 10 nM): 108% | normalised viability ([17]; 1000 nM): 95.5% | normalised viability ([17]; 10000 nM): 97.7% | normalised viability ([18]; 10 nM): 92% | normalised viability ([18]; 1000 nM): 90.4% | normalised viability ([18]; 10000 nM): 96% | normalised viability ([19]; 3 nM): 120% | normalised viability ([19]; 30 nM): 102% | normalised viability ([19]; 100 nM): 94.7% | normalised viability ([20]; 3 nM): 117% | normalised viability ([20]; 30 nM): 98.7% | normalised viability ([20]; 100 nM): 105% | normalised viability ([21]; 3 nM): 104% | normalised viability ([21]; 30 nM): 88% | normalised viability ([21]; 100 nM): 104% | normalised viability ([22]; 10 nM): 108% | normalised viability ([22]; 1000 nM): 114% | normalised viability ([22]; 10000 nM): 128% | normalised viability ([23]; 10 nM): 89.3% | normalised viability ([23]; 1000 nM): 90.5% | normalised viability ([23]; 10000 nM): 89.5% | normalised viability ([24]; 3 nM): 100% | normalised viability ([24]; 30 nM): 113% | normalised viability ([24]; 100 nM): 99.4% | normalised viability ([25]; 10 nM): 93.9% | normalised viability ([25]; 1000 nM): 91.3% | normalised viability ([25]; 10000 nM): 105% | drug sensitivity score [1]: 0 | drug sensitivity score [2]: 0 | drug sensitivity score [3]: 0 | drug sensitivity score [4]: 0 | drug sensitivity score [5]: 0 | drug sensitivity score [6]: 0 | drug sensitivity score [7]: 0 | drug sensitivity score [8]: 0 | drug sensitivity score [9]: 0 | drug sensitivity score [10]: 0 | drug sensitivity score [11]: 0 | drug sensitivity score [12]: 0 | drug sensitivity score [13]: 0

Cn1cc(C[C@@H](N)C(=O)O)c2ccccc21 [1-methyl-D-tryptophan]
drug sensitivity score [1]: 0 | drug sensitivity score [2]: 0 | drug sensitivity score [3]: 0 | drug sensitivity score [4]: 0 | drug sensitivity score [5]: 0 | drug sensitivity score [6]: 0 | drug sensitivity score [7]: 0 | drug sensitivity score [8]: 0 | drug sensitivity score [9]: 0 | drug sensitivity score [10]: 0 | drug sensitivity score [11]: 0 | drug sensitivity score [12]: 0 | drug sensitivity score [13]: 0 | drug sensitivity score [14]: 0

CCc1cnn2c(NCc3ccc[n+]([O-])c3)cc(N3CCCC[C@H]3CCO)nc12 [Dinaciclib]
drug sensitivity score [1]: 0 | drug sensitivity score [2]: 0 | drug sensitivity score [3]: 0 | drug sensitivity score [4]: 0 | drug sensitivity score [5]: 13.1 | drug sensitivity score [6]: 18.4 | drug sensitivity score [7]: 3.72 | drug sensitivity score [8]: 8.81 | drug sensitivity score [9]: 5.57 | drug sensitivity score [10]: 0 | drug sensitivity score [11]: 1.4 | drug sensitivity score [12]: 6.99 | drug sensitivity score [13]: 0 | drug sensitivity score [14]: 25.4

CN1CCc2c(c3ccccc3n2Cc2ccc(C(=O)NO)cc2)C1 [Tubastatin A]
drug sensitivity score [1]: 0 | drug sensitivity score [2]: 0 | drug sensitivity score [3]: 0 | drug sensitivity score [4]: 0 | drug sensitivity score [5]: 0 | drug sensitivity score [6]: 0 | drug sensitivity score [7]: 0.156 | drug sensitivity score [8]: 7.48 | drug sensitivity score [9]: 0 | drug sensitivity score [10]: 10 | drug sensitivity score [11]: 0 | drug sensitivity score [12]: 0 | drug sensitivity score [13]: 0 | drug sensitivity score [14]: 2.06
